# Laboratory results published in patent US9393221B2, “Methods and compounds for reducing intracellular lipid storage” (THE GENERAL HOSPITAL CORPORATION, priority 2011, dated 2016).
# Counter-ions that a name gives are not always drawn.
# Tested on: ATGL-KO iPSCs
# Experiment: High throughput iPSC chemical screening, Oil Red O (ORO) lipid accumulation; as to Z-score: test concentration or dose not given here
# Assay type: cell-based, mouse
# Conditions: not given
row,SMILES,Z-score
1,C[C@]12CC[C@@H](O)C[C@@H]1CC[C@@H]1[C@@H]2CC[C@]2(C)C(=O)CC[C@@H]12 [Androsterone],1.156

# Same assay, conditions: glycolytic switch compounds
row,SMILES,Rank in normalized ORO score from screen
1,O=C1O[C@H]([C@@H](O)CO)C(O)=C1O [Ascorbic acid],764

# Same assay, conditions: normalized ORO level vs DMSO-treated cells; compound present during 7 days differentiation, 96-well; negative = decrease in lipid accumulation
row,SMILES,Z-score
1,"c1ccc(CNc2ncnc3[nH]cnc23)cc1 [Aminopurine, 6-benzyl]",−0.7385
2,CCCCc1oc2ccccc2c1C(=O)c1cc(I)c(OCCN(CC)CC)c(I)c1 [Amiodarone hydrochloride],0.1139
3,CN(C)CCCO[C@@H]1[C@H]2OC(C)(C)O[C@H]2O[C@@H]1[C@H](O)CO [Amiprilose hydrochloride],−0.6893
4,CN(C)CCC=C1c2ccccc2CCc2ccccc21.Cl [Amitryptiline hydrochloride],0.6781
5,CCN(CC)Cc1cc(Nc2ccnc3cc(Cl)ccc23)ccc1O [Amodiaquin dihydrochloride dihydrate],0.3315
6,Clc1ccc2c(c1)C(N1CCNCC1)=Nc1ccccc1O2 [Amoxapine],−0.8161
7,CC1(C)S[C@@H]2[C@H](NC(=O)[C@H](N)c3ccc(O)cc3)C(=O)N2[C@H]1C(=O)O [Amoxicillin],−0.1957
8,C[C@@H]1[C@H](O)[C@@H](C)/C=C/C=C/C=C/C=C/C=C/C=C/C=C/[C@H](O[C@@H]2O[C@H](C)[C@@H](O)[C@H](N)[C@@H]2O)C[C@@H]2O[C@](O)(C[C@@H](O)C[C@@H](O)[C@H](O)CC[C@@H](O)C[C@@H](O)CC(=O)O[C@H]1C)C[C@H](O)[C@H]2C(=O)O [Amphotericin B],0.5223
9,CC1(C)S[C@@H]2[C@H](NC(=O)[C@H](N)c3ccccc3)C(=O)N2[C@H]1C(=O)O [Ampicillin trihydrate],−1.3793
10,CCCc1ncc(C[n+]2ccccc2C)c(N)n1 [Amprolium hydrochloride],0.8329
11,Cc1c(N)c(=O)n(-c2ccccc2)n1C [Ampyrone],−0.2996
12,Nc1cc(-c2ccncc2)c[nH]c1=O [Amrinone],1.535
13,c1cncc([C@@H]2CCCCN2)c1 [Anabasine],−0.7781
14,COc1ccc(C[C@H]2NC[C@H](O)[C@H]2OC(C)=O)cc1 [Anisomycin],30.3787
15,"Cc1c(O)c(=O)n(-c2ccccc2)n1C [Antipyrine, 4-hydroxy]",0.52
16,Cc1cc(=O)n(-c2ccccc2)n1C [Antipyrine],−0.2127
17,O=c1cc(-c2ccc(O)cc2)oc2cc(O)cc(O)c12 [Apigenin],−0.2208
18,CN[C@@H]1[C@@H](O[C@H]2O[C@H](CO)[C@@H](N)[C@H](O)[C@H]2O)OC2C[C@@H](N)[C@@H](O[C@H]3[C@H](O)[C@@H](O)[C@H](N)C[C@@H]3N)OC2[C@@H]1O (some centres unmarked) [Apramycin],−1.1349
19,OC[C@H]1O[C@@H](Oc2ccc(O)cc2)[C@H](O)[C@@H](O)[C@@H]1O [Arbutin],0.1806
20,NC(N)=NCCCCN=C(N)N [Arcaine sulfate],0.3237
21,COC(=O)C1=CCCN(C)C1 [Arecoline hydrobromide],0.1373
22,C[C@@H]1CC[C@H]2[C@@H](C)C(=O)O[C@@H]3O[C@@]4(C)CC[C@@H]1[C@]32OO4 [Artemisinin],4.801
23,CCCNC(C)C(=O)Nc1c(C)csc1C(=O)OC (centres unmarked) [Articaine hydrochloride],0.836
24,O=C1O[C@H]([C@@H](O)CO)C(O)=C1O [Ascorbic acid],0.3599
25,COc1ccc(CCN2CCC(Nc3nc4ccccc4n3Cc3ccc(F)cc3)CC2)cc1 [Astemizole],−0.7215
26,O=C1C(O)=C([C@H]2CC[C@H](c3ccc(Cl)cc3)CC2)C(=O)c2ccccc21 [Atovaquone],0.629
27,C=C1[C@@H]2CC[C@H]3[C@]4(C)C[C@H](O[C@@H]5O[C@H](CO)[C@@H](OS(=O)(=O)O)[C@H](OS(=O)(=O)O)[C@H]5OC(=O)CC(C)C)C[C@@H](C(=O)O)[C@H]4CC[C@]3(C2)[C@@H]1O [Atractyloside potassium salt],−0.3937
